System: HeLa cells
Experiment: Cell cytotoxicity assay (crystal violet), HeLa
Type: cell-based, human
Details: 24 hours, 50 μM wogonin, 20 μM 5-FU, absorbance 600 nm
Description: Cell cytotoxicity assay was carried out on 96 well plate, where cells were treated with neutral, acidic, alkaline pH and anti-cancer drug wogonin or 5-FU. After 24 hours, crystal violet (8% in methanol), and dye absorbed by live cells was extracted with sodium citrate (0.1 M) in 50% ethanol. Absorbance was read at 600 nm.
HepG2, HeLa and A549 cells were grown to a monolayer density of 1×10^3 per well in neutral growth medium overnight. There upon the cells were changed to various treatment media at neutral, acidic and alkaline pHs, neutral medium containing 50 μM wogonin and neutral medium containing 20 μM 5-FU, for 24 hours at 37° C. in humidified 5% CO2 atmosphere. Following the treatment, floating cells were removed, and the attached cells were stained with crystal violet (8% in methanol); the dye absorbed by the live cells was extracted with sodium citrate (0.1 M) in 50% ethanol [1 25], and quantitated by absorbance at 600 nm.

Row | SMILES | Cell death as compared to neutral pH
1 | COc1c(O)cc(O)c2c(=O)cc(-c3ccccc3)oc12 [Wogonin, wogonin] | increased cell death
2 | O=c1[nH]cc(F)c(=O)[nH]1 [5-FU, 5-flurouracil] | increased cell death

Source: patent US11952593B2, “Detection and treatment of daughter number variations in cancer cells” (PharmacoGenetics Limited, priority 2020, dated 2024)
